Here are results for 7 compounds from US5929063A, “Mercapto and seleno derivatives as inhibitors of nitric oxide synthase” (priority 1995, dated 1999).

Entries after “also recorded” stand apart in the source; their conditions may differ. Read-outs that look alike come from different tables or passages of the source.

The target of assay [1] is T1, iNOS (Rattus norvegicus, UniProt Q06518). As to the kind of experiment: Inhibition of iNOS activity in tissue homogenates (Table 2). The format is biochemical. More on the design: bNOS in tissue homogenates; from tissue; host or cells: tissue homogenate. The following applies: for EC50: iNOS (Table 2).
In the next assay the test system is J774 macrophages. In words: Nitrite production by immunostimulated J774 macrophages (endotoxin 24 h, Griess). The format is cell-based, mouse. The settings on record: for EC50: Mus musculus, J774, endotoxin 10 μg/ml, 24 h (Table 1), read-out: EC50 for the inhibition of nitrite production by stimulated J774 macrophages. As to the method:
This example illustrates the effect of selected mercapto derivatives on endotoxin-induced nitrite formation in J774.2 macrophages and on IL-1 gamma-interferon induced nitrite formation in cultured rat arctic smooth muscle cells. J774 macrophage cell lines were obtained from the American Type Culture Collection (ATCC) and were grown using standard methods in Dulbecco's Modified Eagle Medium (DMEM) supplemented with 10% fetal bovine serum, glutamine, penicillin (10,000 U/l) and streptomycin (10,000 U/l). Rat aortic smooth muscle cells (RASM) from Wistar rats were isolated by enzymatic dissociation using standard methods. The cells were positively identified as smooth muscle by indirect immunofluorescent staining for a-actin, using mouse anti-α-actin antibody and anti-mouse IgG fluorescein isothiocyanate (FITC) conjugate. RASM cells were grown in T-75 tissue culture flasks in 50% F12 nutrient medium and 50% Dulbecco's Modified Eagle Medium supplemented with 10% fetal bovine serum, glutamine, penicillin (10,000 U/l) and streptomycin (10,000 U/l). Cells were grown in 96-well plates for measure of nitrite production and cell viability. J774 macrophages were treated with endotoxin (10 μg/ml) for 24 hours; smooth muscle cells were treated with IL-1 (100 U/ml) and gamma-interferon (50 U/ml) for 48 hours.
Concentration of nitrite, the degradation product of NO in the culture medium, was determined by mixing equal volumes of medium with the Griess reagent (1% sulfanilamide/0.1% naphthylethylenediamine dihydrochloride/2.5% H3 PO4). The mixture was incubated for 10 minutes at room temperature to form the chromophore, then optical densities (OD) were determined at 550 nm (OD550). NaNO2 was used as the standard. Spectrophotometric measurements were performed in a dual-wavelength spectrophotometer.

The target of another assay is T2, ecNOS (Bos taurus, UniProt P29473).
T2 construct: the intimal surface of fresh bovine aortae was scraped and homogenized; from tissue; host or cells: homogenate of intimal scrapings of fresh bovine aortae
As to the kind of experiment: ecNOS activity from intimal scrapings of fresh bovine aortae (conversion of [3H]-L-arginine to [3H]-L-citrulline). The format is biochemical. The protocol:
The intimal surface of fresh bovine aortae was scraped in the presence of homogenation buffer composed of 50 mM Tris-HCl, 0.1 mM ethylenediamine tetraacetic acid (EDTA) and 0.1 mM ethyleneglycol bis (beta-aminoethyl ether) (EGTA). Conversion of [^3 H]-L-arginine to [^3 H]-L-citrulline was measured in the homogenates as follows: cell homogenate (50 μl) was incubated in the presence of [^3 H]-L-arginine (10 μM, 5 kBq/tube), NADPH (2 mM), calmodulin (30 nM), tetrahydrobiopterin (5 μM) and calcium (2 mM) for 20 minutes at 37° C. in N-2-hydroxethyl piperazine-N-2-ethane sulfonic acid (HEPES) buffer (pH 7.5). Reactions were stopped by dilution with 1 ml of ice cold HEPES buffer (pH 5.5) containing EGTA (2 mM) and EDTA (2 mM). Reaction mixtures were applied to Dowex 50W (Na^+ form) columns and the eluted [^3 H]-L-citrulline activity was measured by scintillation counting. bNOS activity was measured using similar methods in homogenates of whole rat brains.
For a preparation rich in ecNOS, the intimal surface of fresh bovine aortae was scraped and homogenized. The homogenization buffer was composed of 50 mM tris-HCL, 0.1 mM EDTA, 0.1 mM EGTA and 1 mM phenylmethylsulfonyl chloride (pH 7.4). Cell suspensions were homogenized in the homogenization buffer on ice using a Tissue Tearor 985-370 homogenizer (BioSpec Products, Racine, Wis.). Conversion of [^3 H]-L-arginine to [^3 H]-L-citrulline was measured in the homogenates as described in Example 3 above.

The next assay relates to J774.2 macrophages. As to the kind of experiment: Nitrite production in immunostimulated J774.2 macrophages (E.coli LPS + murine gamma-interferon, 24 h). The format is cell-based, mouse. The following applies: for activity at 1000 µM / activity at 100 µM / activity at 31.6 µM / activity at 10 µM / activity at 3.16 µM / activity at 1 µM / EC50: Mus musculus; for activity at 1000 µM / activity at 100 µM / activity at 31.6 µM / activity at 10 µM / activity at 3.16 µM / activity at 1 µM: J774.2, 24 h, read-out: NITRITE (% OF CONTROL); for activity at 1000 µM: inhibitor concentration -3.000 log M (Table 3). The protocol:
This example illustrates the effect of selected mercapto and seleno derivatives on nitrite production in J774.2 immunostimulated macrophages. The J774.2 mouse macrophage cell line was obtained from the ATCC and was cultured in DMEM with 4×10^-3 M L-glutamine and 10% fetal calf serum. Cells were cultured in 96-well plates with 200 μl culture medium until they reached 60-80% confluence. To induce INOS, fresh culture medium containing E.coli LPS (10 μg/ml) and murine gamma-interferon (IFN)(50 U/ml) was added. Nitrite accumulation in the cell culture medium in the absence or presence of various inhibitors was measured after 24 hours. Nitrite production, an indicator of NO synthesis, was measured in the supernatant of J774.2 macrophages by the Greiss reaction as described in Example 1 above.
This Example illustrates the effect of selected seleno derivatives on endotoxin-induced nitrite formation in J774.2 macrophages. The mouse macrophage cell line J774.2 obtained from the ATCC was cultured in DMEM with 4×10^-3 M L-glutamine and 10% fetal calf serum. Cells were cultured in 96-well plates with 200 μl culture medium until they reached 60-80% confluence. To induce iNOS, fresh culture medium containing E.coli LPS (10 μg/ml) and murine gamma-interferon (IFN)(50 U/ml) were added. Nitrite accumulation in the cell culture medium in the absence or presence of various inhibitors was measured after 24 hours. There was no detectable nitrite production by the J774.2 macrophages in the absence of immunostimulation. However, in the presence of IFN and LPS, nitrite concentration of the medium increased to 17±2 μM in the absence of inhibitor.

Assay [2] deals with T1, iNOS. As to the kind of experiment: iNOS activity in lung homogenates from rats treated with bacterial endotoxin. The format is biochemical. Set-up: Lungs were obtained from rats which had been treated with bacterial endotoxin; from tissue; host or cells: lung homogenate from endotoxin-treated rats. The settings on record: for selectivity for iNOS: iNOS vs ecNOS EC50 values; for inhibition of iNOS activity, in words: lung homogenates, rats treated with endotoxin. As to the method:
This Example illustrates the effect of selected mercapto and seleno derivatives on iNOS activity in lung homogenates prepared from rats treated with endotoxin. […] The homogenization buffer was composed of 50 mM tris-HCL, 0.1 mM EDTA, 0.1 mM EGTA and 1 mM phenylmethylsulfonyl chloride (pH 7.4). Cell suspensions were homogenized in the homogenization buffer on ice using a Tissue Tearor 985-370 homogenizer (BioSpec Products, Racine, Wis.).

The target in a further assay is T3, bNOS (Rattus norvegicus, UniProt P29476).
T3 construct: bNOS activity was measured using similar methods in homogenates of whole rat brains; from tissue; host or cells: homogenate of whole rat brains
As to the kind of experiment: bNOS activity in homogenates of whole rat brains. The format is biochemical.

Where [3] appears, read: inhibitor concentration -4.000 log M (Table 3).
Setting [4] is: inhibitor concentration -5.000 log M (Table 3).
Where [5] appears, read: inhibitor concentration -6.000 log M (Table 3).
The mark [6] stands for this setting: inhibitor concentration -3.000 log M.
The mark [7] stands for this setting: inhibitor concentration -4.000 log M.
Setting [8] is: inhibitor concentration -5.000 log M.
Setting [9] is: inhibitor concentration -6.000 log M.
The mark [10] stands for this setting: inhibitor concentration -7.000 log M.
Setting [11] is: ecNOS (Table 2), read-out: EC50 for inhibition of ecNOS activity in tissue homogenates.

T3 sequence (P29476 whole entry): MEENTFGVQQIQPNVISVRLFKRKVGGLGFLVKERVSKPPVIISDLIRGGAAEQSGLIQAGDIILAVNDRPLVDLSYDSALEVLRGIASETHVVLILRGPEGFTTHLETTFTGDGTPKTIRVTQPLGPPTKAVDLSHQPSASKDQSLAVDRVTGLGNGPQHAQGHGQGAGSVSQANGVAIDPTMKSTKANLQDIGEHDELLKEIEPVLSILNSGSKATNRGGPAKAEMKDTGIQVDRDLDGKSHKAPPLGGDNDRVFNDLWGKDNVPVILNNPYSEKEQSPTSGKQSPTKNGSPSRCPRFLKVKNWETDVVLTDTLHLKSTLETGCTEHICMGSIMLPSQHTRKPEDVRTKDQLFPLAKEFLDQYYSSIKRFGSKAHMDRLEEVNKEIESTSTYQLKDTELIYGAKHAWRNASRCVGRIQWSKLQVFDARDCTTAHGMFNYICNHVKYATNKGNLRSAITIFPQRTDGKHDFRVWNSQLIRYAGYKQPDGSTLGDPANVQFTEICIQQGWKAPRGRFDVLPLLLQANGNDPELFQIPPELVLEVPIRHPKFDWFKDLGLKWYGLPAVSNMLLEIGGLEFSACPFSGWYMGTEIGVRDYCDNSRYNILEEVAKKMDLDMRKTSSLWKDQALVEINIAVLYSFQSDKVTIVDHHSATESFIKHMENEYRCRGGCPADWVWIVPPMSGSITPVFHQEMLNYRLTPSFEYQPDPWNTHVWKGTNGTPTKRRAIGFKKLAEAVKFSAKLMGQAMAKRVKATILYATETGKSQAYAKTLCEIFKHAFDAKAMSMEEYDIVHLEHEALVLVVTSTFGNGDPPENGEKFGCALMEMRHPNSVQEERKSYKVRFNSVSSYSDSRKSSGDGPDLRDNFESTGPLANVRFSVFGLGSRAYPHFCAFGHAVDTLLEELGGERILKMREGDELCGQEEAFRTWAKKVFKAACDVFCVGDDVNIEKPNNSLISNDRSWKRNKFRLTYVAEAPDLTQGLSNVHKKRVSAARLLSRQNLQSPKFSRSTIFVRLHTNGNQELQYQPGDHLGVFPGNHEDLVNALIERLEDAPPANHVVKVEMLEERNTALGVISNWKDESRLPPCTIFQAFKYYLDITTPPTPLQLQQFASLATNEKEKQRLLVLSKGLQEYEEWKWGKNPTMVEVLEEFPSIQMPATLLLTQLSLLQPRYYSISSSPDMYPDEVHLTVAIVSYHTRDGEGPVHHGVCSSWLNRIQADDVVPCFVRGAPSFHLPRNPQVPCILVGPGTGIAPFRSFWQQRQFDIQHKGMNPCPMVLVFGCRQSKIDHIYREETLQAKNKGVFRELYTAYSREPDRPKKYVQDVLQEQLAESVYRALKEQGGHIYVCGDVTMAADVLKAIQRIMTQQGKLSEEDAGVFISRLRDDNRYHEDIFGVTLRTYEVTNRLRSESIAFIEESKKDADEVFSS

Turning to `N=C(NCCC[C@H](N)C(=O)O)N[N+](=O)[O-]` [L-NA, N^G -Nitro-L-arginine, reference compound], the EC50 was 300 µM on iNOS [1] and roughly 1000 µM with J774 macrophages.

On to `N=C(N)NCC[SeH]` [SEG, selenoethylguanidine], for which the concentration for a half-maximal effect (EC50) is 600 µM at ecNOS; 10 µM in the assay on J774.2 macrophages (J774.2, read-out: EC50, inhibition of nitrite production); 10 µM at iNOS [2]. Further, the “inhibition of ecNOS activity, in words” value at ecNOS is recorded as “inhibited ecNOS activity less strongly than the L-NMA”. Besides, the “inhibition of nitrite production, in words” value in the assay with J774.2 macrophages (IFN and LPS) was “dose-dependent inhibition of nitrite production; also recorded: dose-dependently inhibited nitrite production”. Further, in the assay on J774.2 macrophages (IFN and LPS), the “potency relative to reference compound L-NMA” value was “higher than the reference compound L-NMA”. Besides, in the assay on J774.2 macrophages, the activity at 1000 µM stood at 0%. Also, the activity at 100 µM in the assay on J774.2 macrophages (setting [3]) turned out to be 7%; with J774.2 macrophages (inhibitor concentration -4 log M (Table 6)) it was 14%. The activity at 31.6 µM in the assay with J774.2 macrophages (inhibitor concentration -4.5 log M (Table 6)) stood at 28%. Besides, the activity at 10 µM in the assay with J774.2 macrophages (setting [4]) and in the assay on J774.2 macrophages (inhibitor concentration -5 log M (Table 6)) was 50% in each case. For the same compound, the activity at 3.16 µM with J774.2 macrophages (inhibitor concentration -5.5 log M (Table 6)) was determined as 94%. Besides, the activity at 1 µM in the assay with J774.2 macrophages (setting [5]) turned out to be 90%; in the assay with J774.2 macrophages (inhibitor concentration -6 log M (Table 6)), 100%. Also, the “selectivity for iNOS” value on iNOS [2] is “relative selectivity of SEG and GED for iNOS”. The “iNOS ACTIVITY (%)” value at iNOS [2] (setting [6]) stood at 0.0000%; at iNOS [2] (setting [7]), 15.000%; on iNOS [2] (setting [8]), 56.000%; at iNOS [2] (setting [9]) it was 86.000%; on iNOS [2] (setting [10]), 100.000%. In addition, at iNOS [2], the “inhibition of iNOS activity, in words” value is given as “inhibits iNOS activity, more strongly”.

On to `N=C(N)NCCSSCCNC(=N)N` [GED, guanidinoethyldisulfide], for which the half-maximal effective concentration (EC50) on bNOS stood at 180 µM; on ecNOS (setting [11]), 630 µM; in the assay on J774.2 macrophages (J774.2, IFN and LPS, Example 9, read-out: EC50, inhibition of nitrite production) it was 0.3 µM; at iNOS [2] (comparing Tables 4 and 5, read-out: EC50 on iNOS), 200 µM; on iNOS [1] it was 200 µM; in the assay with J774 macrophages it was 1 µM. Moreover, the “inhibition of ecNOS activity, in words” value against ecNOS was “inhibited ecNOS activity less strongly than the L-NMA”. The “inhibition of nitrite production, in words” value with J774.2 macrophages (IFN and LPS) is on record as “dose-dependent inhibition of nitrite production”. The “potency relative to reference compound L-NMA” value in the assay on J774.2 macrophages (IFN and LPS) is “higher than the reference compound L-NMA”. Besides, in the assay on J774.2 macrophages, the activity at 1000 µM came out at 0%. Also, the activity at 100 µM in the assay with J774.2 macrophages (setting [3]) turned out to be 0%. Moreover, in the assay with J774.2 macrophages (setting [4]), the activity at 10 µM was 7%. For the same compound, in the assay with J774.2 macrophages (setting [5]), the activity at 1 µM amounted to 36%. Moreover, on iNOS [2], the “selectivity for iNOS” value is “relative selectivity of SEG and GED for iNOS”. Besides, the “iNOS ACTIVITY (%)” value at iNOS [2] (setting [6]) was 22.000%; on iNOS [2] (setting [7]), 57.000%; on iNOS [2] (setting [8]), 100.000%; at iNOS [2] (setting [9]), 100.000%; at iNOS [2] (setting [10]) it was 100.000%. In addition, at iNOS [2], the “inhibition of iNOS activity, in words” value is “somewhat similar in their inhibitory effect on INOS activity”.

Regarding `CSCCNC(=N)N` [S-methyl-MEG, S-methyl-mercaptoethylguanidine], the EC50 was determined as 8 µM at bNOS, 43 µM on ecNOS (setting [11]), 1.4 µM at iNOS [1] and 80 µM in the assay with J774 macrophages.

For the compound `NC1=NCC[Se]1` [ASZ, 2-aminoselenazoline], the “inhibition of nitrite production, in words” value in the assay with J774.2 macrophages (IFN and LPS) is “dose-dependently inhibited nitrite production”. Further, in the assay on J774.2 macrophages, the activity at 1 µM worked out at 100%, the activity at 3.16 µM was found to be 96%, the activity at 10 µM stood at 60% and the activity at 31.6 µM was found to be 37%. Moreover, in the assay with J774.2 macrophages, the activity at 100 µM came to 14%.

Turning to `N=C(N)NCCC[SeH]` [SPG, selenopropylguanidine], the “inhibition of nitrite production, in words” value with J774.2 macrophages (IFN and LPS) is reported as “dose-dependently inhibited nitrite production”. Also, in the assay with J774.2 macrophages, the activity at 1 µM stood at 100%, the activity at 3.16 µM came out at 73%, the activity at 10 µM came out at 11% and the activity at 31.6 µM turned out to be 4%. For the same compound, in the assay with J774.2 macrophages, the activity at 100 µM came out at 0%.

For the compound `CCSCCNC(=N)N` [S-ethyl-MEG], the concentration for a half-maximal effect (EC50) was determined as 460 µM on bNOS, 850 µM on ecNOS (setting [11]), 30 µM at iNOS [1] and 328 µM in the assay with J774 macrophages. Besides, the “inhibition of ecNOS activity, in words” value against ecNOS is given as “less potent on ecNOS”. Besides, the “inhibition of iNOS activity, in words” value against iNOS [1] was “relative potent inhibitors of iNOS activity”. Also, the “inhibition of nitrite production/accumulation, in words” value in the assay on J774 macrophages (immunostimulated J774 macrophages) is reported as “inhibitors of nitrite accumulation”.

One may read the EC50 as the concentration at which the effect is half-maximal.
